Results as given in patent US9409864B2, “Sulfonamide TRPA1 receptor antagonists” (ARIO PHARMA LIMITED, priority 2013, dated 2016).
Like-named read-outs stand apart in the source and are kept apart here.

Columns and labels:
[1] = tested on: oxaliplatin-induced mechanical hyperalgesia in rats; assay: Oxaliplatin-induced mechanical hyperalgesia in rats; assay type: in vivo; conditions: Rattus norvegicus, 168 h, 30 μmol/kg oral, 7 days post i.v. oxaliplatin 2.5 mg/kg
Method: Oxaliplatin-Induced Mechanical Hyperalgesia in Rats
The method described by Nassini et al. (Pain, 2011, 152(7), 1621-31) was used with minor modifications. Restrained rats were treated with a single intravenous bolus injection of oxaliplatin (2.5 mg/kg) dissolved in normal saline. This approach was sufficient to elicit reproducible allodynic behaviour evident 3 days post injection and during the day thereafter. For convenience all acute experiments were conducted 7 days post injection when compounds were orally administered at 30 μmol/kg.

[2] = biological target: T1, native human TRPA1 receptors (Homo sapiens, UniProt O75762); assay: PF-4840154 (1 μM)-induced Ca2+ fluorescence measurements in A549 cell line; assay type: cell-based; conditions: for inhibition at 10 µM: 10 μM compound against 1 μM PF-4840154, A549 cells; for IC50: against PF-4840154 (1 μM)-evoked [Ca2+]i mobilization, A549 cells
T1 construct: stably expressing native human TRPA1 receptors were used; endogenous in cells; host or cells: A549 human lung adenocarcinoma epithelial cell line
Summary of the method: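 A549 cells stably expressing native human TRPA1, Fluo-4 AM loaded; fluorescence Ca2+ read in HBSS with probenecid and Brilliant Black at 36.5 °C. Compounds tested alone for agonism and against 1 μM PF-4840154 for inhibition at initial 10 μM; IC50 from full concentration-response curves for selected compounds.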

[3] = biological target: T2, TRPA1 (cultured rat dorsal root ganglia neurons) (Rattus norvegicus, UniProt Q6RI86); assay: PF-4840154 (10 μM)-induced Ca2+ fluorescence measurements in cultured rat dorsal root ganglia neurons; assay type: cell-based; conditions: against 10 μM PF-4840154-induced [Ca2+]i mobilization, primary culture of rat dorsal ganglia neurons
T2 construct: calcium assay data obtained in primary culture of rat dorsal ganglia neurons; from tissue; host or cells: primary culture of dorsal root ganglia neurons from male SD rats
Method: PF-4840154 (10 μM)-Induced Ca^2+ Fluorescence Measurements in Cultured Rat Dorsal Root Ganglia Neurons
Male SD rats (˜50 g, Charles River, Italy) were terminally anaesthetized and decapitated. Dorsal root ganglia were removed and placed in cold Hank's balanced salt solution (HBSS) before being transferred to collagenase (2 mg/ml) and trypsin (1 mg/ml) for 35 min at 37° C. The ganglia, placed in cold DMEM supplemented with 10% fetal bovine serum, 10% horse serum, 2 mM L-glutamine, 100 U/ml penicillin and 100 μg/ml streptomycin, were dissociated in single cells by several passages through a series of syringe needles (23G down to 25G). The medium and the ganglia were filtered to remove debris, topped up with 4 ml of DMEM medium and centrifuged (1100 rpm for 6 min). The final cell pellet was re-suspended in DMEM medium [supplemented with 100 ng/ml mouse Nerve Growth Factor (mouse-NGF-7S) and cytosine-β-D-arabinofuranoside free base (ARA-C) 2.5 μM]. The cells were plated on poly-L-lysine (8.3 μM)- and laminin (5 μM)-coated 25 mm glass cover slips and kept for 2 days at 37° C. in a humidified incubator gassed with 5% CO2 and air, then treated with Fura-2-AM-ester (5 μM) in a Ca^2+ buffer solution having the following composition (mM): CaCl2 1.4, KCl 5.4, MgSO4 0.4, NaCl 135, D-glucose 5, HEPES 10 with BSA (0.1%), at pH 7.4, for 40 min at 37° C. The cells were then washed twice with the Ca^2+ buffer solution and transferred to a chamber on the stage of a Nikon eclipse TE300 microscope. Fura-2-AM-ester was excited at […] to indicate relative [Ca^2+]i changes by the F340/F380 ratio recorded with a dynamic image analysis system (Laboratory Automation 2.0, RCS, Florence, Italy) and the cells were allowed (at least 10 min) to attain a stable fluorescence before beginning the experiment. A calibration curve was set up using buffer containing Fura-2-AM-ester and determinant concentrations of free Ca^2+. This curve was then used to convert the data obtained from the F340/F380 ratio to [Ca^2+]i (nM).
All exemplified compounds were tested at the concentration of 10 μM against the calcium uptake induced by 10 μM PF-4840154. For selected examples, the entire concentration response curves were constructed and the respective IC50 value calculated.

[4] = tested on: PF-4840154-induced mechanical hyperalgesia in rats; assay: Agonist (PF-4840154)-induced mechanical hyperalgesia in rats; assay type: in vivo; conditions: Rattus norvegicus, 30 μmol/kg oral, PF-4840154 0.05 nmol/50 μl/paw intraplantar
Source text: Agonist (PF-4840154)-Induced Mechanical Hyperalgesia in Rats
The method is used to investigate the anti-hyperalgesic effects of the compounds listed in the present invention following agonist (PF-4840154)-induced hyperalgesic responses. The activity is indicative of TRPA1 receptor occupancy following oral dosing. Specifically, male SD rats (Charles River, Italy) weighing 70-100 g. were used. The anti-hyperalgesic effects were investigated using the electronic dynamometer test. PF-4840154 (Sigma, USA) was used to induce mechanical hyperalgesia. Local, intraplantar injection of PF-4840154 at 0.05 nmol/50 μl/paw caused the reduction of the hind paw withdrawal response induced by mechanical stimuli. Mechanical stimulation was induced in basal condition and 30, 60, 120, 180 and 240 minutes after the oral administration of the antagonists dissolved in 2.5% DMSO and 30% Solutol. Compounds were orally administered (30 μmol/kg/10 ml) to rats 1 hour before the injection of PF-4840154 into the plantar surface of a rat's hind using a micro syringe.

[5] = read-out: % of reversal of mechanical allodynia
[6] = read-out: Maximal inhibition (%)

T2 sequence (Q6RI86 whole entry): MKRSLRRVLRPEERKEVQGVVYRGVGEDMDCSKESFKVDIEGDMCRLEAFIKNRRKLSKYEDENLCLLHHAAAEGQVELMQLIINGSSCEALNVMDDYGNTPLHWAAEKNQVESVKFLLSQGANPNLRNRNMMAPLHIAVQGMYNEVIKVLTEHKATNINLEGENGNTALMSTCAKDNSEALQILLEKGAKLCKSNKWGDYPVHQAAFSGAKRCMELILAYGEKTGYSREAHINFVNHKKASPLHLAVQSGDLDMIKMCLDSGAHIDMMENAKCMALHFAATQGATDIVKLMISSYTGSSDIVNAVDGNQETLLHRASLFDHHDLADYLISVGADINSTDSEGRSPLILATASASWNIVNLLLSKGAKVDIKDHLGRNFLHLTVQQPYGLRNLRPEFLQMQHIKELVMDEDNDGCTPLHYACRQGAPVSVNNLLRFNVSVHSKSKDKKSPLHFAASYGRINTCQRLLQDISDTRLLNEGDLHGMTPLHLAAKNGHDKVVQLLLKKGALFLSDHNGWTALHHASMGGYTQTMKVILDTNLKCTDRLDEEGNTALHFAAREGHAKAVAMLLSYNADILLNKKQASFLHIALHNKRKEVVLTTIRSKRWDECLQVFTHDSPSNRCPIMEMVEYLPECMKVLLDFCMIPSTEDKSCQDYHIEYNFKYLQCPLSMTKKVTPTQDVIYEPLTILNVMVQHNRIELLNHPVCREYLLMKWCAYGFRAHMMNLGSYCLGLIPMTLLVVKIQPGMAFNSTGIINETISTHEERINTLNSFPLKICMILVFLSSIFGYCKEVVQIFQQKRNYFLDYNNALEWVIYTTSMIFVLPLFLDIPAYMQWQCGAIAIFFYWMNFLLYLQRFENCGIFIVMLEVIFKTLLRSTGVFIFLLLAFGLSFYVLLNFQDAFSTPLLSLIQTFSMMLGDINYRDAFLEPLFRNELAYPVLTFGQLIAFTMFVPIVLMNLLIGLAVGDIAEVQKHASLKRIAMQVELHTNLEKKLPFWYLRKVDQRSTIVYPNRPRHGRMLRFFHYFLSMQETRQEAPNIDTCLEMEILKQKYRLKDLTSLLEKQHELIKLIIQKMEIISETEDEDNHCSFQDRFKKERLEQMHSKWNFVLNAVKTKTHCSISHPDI
T1 sequence (O75762 whole entry): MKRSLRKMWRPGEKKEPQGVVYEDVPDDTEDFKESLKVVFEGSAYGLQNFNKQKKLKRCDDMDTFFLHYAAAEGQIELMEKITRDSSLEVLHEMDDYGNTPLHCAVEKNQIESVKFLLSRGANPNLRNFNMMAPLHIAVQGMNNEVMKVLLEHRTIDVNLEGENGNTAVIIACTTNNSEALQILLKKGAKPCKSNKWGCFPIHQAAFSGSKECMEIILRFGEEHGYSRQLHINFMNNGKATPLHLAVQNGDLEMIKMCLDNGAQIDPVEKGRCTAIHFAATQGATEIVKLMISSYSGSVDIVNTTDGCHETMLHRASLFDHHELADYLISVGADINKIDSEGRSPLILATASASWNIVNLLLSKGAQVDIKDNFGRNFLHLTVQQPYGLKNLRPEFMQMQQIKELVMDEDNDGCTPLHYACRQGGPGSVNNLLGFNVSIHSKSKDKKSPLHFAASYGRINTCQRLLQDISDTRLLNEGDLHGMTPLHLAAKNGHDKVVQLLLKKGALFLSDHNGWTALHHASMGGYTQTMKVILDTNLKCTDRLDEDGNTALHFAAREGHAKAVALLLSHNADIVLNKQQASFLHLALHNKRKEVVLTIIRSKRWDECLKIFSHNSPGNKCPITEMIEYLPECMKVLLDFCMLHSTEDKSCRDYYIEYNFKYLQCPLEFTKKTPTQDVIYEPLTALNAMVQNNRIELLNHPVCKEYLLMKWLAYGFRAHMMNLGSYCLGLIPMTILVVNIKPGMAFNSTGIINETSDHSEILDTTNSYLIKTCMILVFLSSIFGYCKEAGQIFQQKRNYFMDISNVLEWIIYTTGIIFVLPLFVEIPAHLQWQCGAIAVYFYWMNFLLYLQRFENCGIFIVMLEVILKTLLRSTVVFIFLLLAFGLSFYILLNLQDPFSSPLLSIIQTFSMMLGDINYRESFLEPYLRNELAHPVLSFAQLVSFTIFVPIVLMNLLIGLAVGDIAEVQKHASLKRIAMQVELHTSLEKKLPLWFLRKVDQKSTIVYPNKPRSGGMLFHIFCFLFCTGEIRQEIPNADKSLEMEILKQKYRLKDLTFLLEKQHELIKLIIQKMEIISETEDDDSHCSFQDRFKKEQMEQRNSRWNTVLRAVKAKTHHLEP

SMILES | inhibition in vivo at 30 µmol/kg [1, 5] | inhibition in vivo at 30 µmol/kg [1, 6] | inhibition at 10 µM [2] | IC50 [2] | IC50 [3] | inhibition in vivo at 30 µmol/kg [4, 5] | inhibition in vivo at 30 µmol/kg [4, 6]
C=C(C(=O)NCc1ccnc(-c2ccc(C(F)(F)F)cc2)c1)N(CC)S(=O)(=O)c1ccc(F)cc1 [Example 1, 2-[ethyl-(4-fluorophenyl)sulfonyl-amino]-N-[[2-[4-(trifluoromethyl)phenyl]-4-pyridyl]methyl]prop-2-enamide] | 97% | 97% | 100% | 0.015 µM | 0.014 µM | 80% | 80%
C=C(C(=O)NCc1ccnc(-c2ccc(OC(F)(F)F)cc2)c1)N(CC)S(=O)(=O)c1ccc(Cl)s1 [Example 7, 2-[(5-chloro-2-thienyl)sulfonyl-ethyl-amino]-N-[[2-[4-(trifluoromethoxy)phenyl]-4-pyridyl]methyl]prop-2-enamide] | – | – | 100% | 0.036 µM | 0.029 µM | 74% | 74%
C=C(C(=O)NCc1cccc(-c2ccc(C(F)(F)F)cc2)c1)N(CC)S(=O)(=O)c1ccc(Cl)cc1 [Example 10, 2-[(4-chlorophenyl)sulfonyl-ethyl-amino]-N-[[3-[4-(trifluoromethyl)phenyl]phenyl]methyl]prop-2-enamide] | – | – | 99% | 0.025 µM | 0.047 µM | 63% | 63%
C=C(C(=O)NCc1cccc(-c2ccc(OC(F)(F)F)cc2)c1)N(CC)S(=O)(=O)c1ccc(F)cc1 [Example 11, 2-[ethyl-(4-fluorophenyl)sulfonyl-amino]-N-[[3-[4-(trifluoromethoxy)phenyl]phenyl]methyl]prop-2-enamide] | – | – | 99% | 0.017 µM | 0.02 µM | 72% | 72%
C=C(C(=O)NCc1cc(-c2ccc(C(F)(F)F)cc2)nc(N2CCCC2)c1)N(CC)S(=O)(=O)c1ccc(Cl)cc1 [Example 14, 2-[(4-chlorophenyl)sulfonyl-ethyl-amino]-N-[[2-pyrrolidin-1-yl-6-[4-(trifluoromethyl)phenyl]-4-pyridyl]methyl]prop-2-enamide] | – | – | 100% | 0.04 µM | 0.06 µM | 75% | 75%
C=C(C(=O)NCc1cc(-c2ccc(C(F)(F)F)cc2)nc(N2CCCC2)c1)N(CC)S(=O)(=O)c1ccc(Cl)s1 [Example 15, 2-[(5-chloro-2-thienyl)sulfonyl-ethyl-amino]-N-[[2-pyrrolidin-1-yl-6-[4-(trifluoromethyl)phenyl]-4-pyridyl]methyl]prop-2-enamide] | – | – | 100% | 0.022 µM | 0.032 µM | 72% | 72%
C=C(C(=O)NCc1cc(-c2ccc(C(F)(F)F)cc2)nc(-c2ccc(C(F)(F)F)cc2)c1)N(CC)S(=O)(=O)c1ccc(Cl)cc1 [Example 19, N-[[2,6-bis[4-(trifluoromethyl)phenyl]-4-pyridyl]methyl]-2-[(4-chlorophenyl)sulfonyl-ethyl-amino]prop-2-enamide] | – | – | 100% | 0.074 µM | 0.068 µM | 74% | 74%
C=C(C(=O)NCc1cc(-c2ccc(C(F)(F)F)cc2)nc(N2CCCC2)c1)N(CC)S(=O)(=O)c1ccc(F)cc1 [Example 38, 2-[ethyl-(4-fluorophenyl)sulfonyl-amino]-N-[[2-pyrrolidin-1-yl-6-[4-(trifluoromethyl)phenyl]-4-pyridyl]methyl]prop-2-enamide] | – | – | 100% | 0.017 µM | 0.014 µM | 87% | 87%
